Laboratory results reported in publication PMC5733478, “A Non-imaging High Throughput Approach to Chemical Library Screening at the Unmodified Adenosine-A3 Receptor in Living Cells” (Frontiers in Pharmacology, 2017).
Structures can show the parent of a compound that is named as a salt. Where two headings read alike, the source gives them in different places.

Columns and labels:
[1] = molecular target: T1, human A3AR (Homo sapiens, UniProt P0DMS8); assay: HTS (PHERAstar FS) fluorescent ligand competition binding in live CHO cells, 25 nM CA200645 tracer; settings: for displacement of CA200645 binding at the A3AR in full inhibition curves: secondary screen of top ten hits, highest concentration 10 μM, affinity not determinable
T1 construct: expressed in transfected cells
T1 sequence (P0DMS8 1-318): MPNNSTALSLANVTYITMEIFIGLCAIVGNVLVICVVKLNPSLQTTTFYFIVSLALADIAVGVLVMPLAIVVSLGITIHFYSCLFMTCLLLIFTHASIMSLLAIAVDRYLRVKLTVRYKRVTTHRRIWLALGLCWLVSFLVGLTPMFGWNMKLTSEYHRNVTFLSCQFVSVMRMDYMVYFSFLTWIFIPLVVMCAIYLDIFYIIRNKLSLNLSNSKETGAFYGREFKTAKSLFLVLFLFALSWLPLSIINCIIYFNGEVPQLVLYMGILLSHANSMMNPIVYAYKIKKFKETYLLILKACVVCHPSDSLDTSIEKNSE
Method: (§1) CHO cells stably expressing the A3AR, A1AR, β1AR or β2AR were seeded into the central 60 wells (for high content confocal analysis) or every well (high throughput analysis) of a 96-well clear-bottomed, black-walled plate (Greiner BioOne) and grown to confluency. […] Cells were incubated for 1h at 37°C/5% CO2. Buffer was then removed from each well, cells washed once in HBSS and fresh HBSS added at room temperature. Plates were then immediately subjected to high content or HTS analysis as detailed below.
(§2) High throughput analysis was performed using a PHERAstar FS plate reader (BMG Technologies). […] Optimal focal height was determined automatically and total fluorescence intensity was assessed by taking 81 reads per well.
(§3) Competition binding curves were fitted to the following equation using GraphPad Prism 5 (GraphPad Software): […]
(§4) where [L] is the concentration and KD is the equilibrium dissociation constant of the fluorescent ligand.

[2] = molecular target: T1, human A3AR; assay: LOPAC library primary screen: single concentration (10 μM) inhibition of 25 nM CA200645 binding, PHERAstar FS
[3] = molecular target: T2, human A1AR (Homo sapiens, UniProt P30542); assay: HTS (PHERAstar FS) fluorescent ligand competition binding in live CHO cells, 25 nM CA200645 tracer; settings: secondary screen of LOPAC hits, 25 nM CA200645, mean ± SEM, n=3; read-out: A1AR pKi (selected LOPAC hits) (converted)
T2 construct: expressed in transfected cells
T2 sequence (P30542 1-326): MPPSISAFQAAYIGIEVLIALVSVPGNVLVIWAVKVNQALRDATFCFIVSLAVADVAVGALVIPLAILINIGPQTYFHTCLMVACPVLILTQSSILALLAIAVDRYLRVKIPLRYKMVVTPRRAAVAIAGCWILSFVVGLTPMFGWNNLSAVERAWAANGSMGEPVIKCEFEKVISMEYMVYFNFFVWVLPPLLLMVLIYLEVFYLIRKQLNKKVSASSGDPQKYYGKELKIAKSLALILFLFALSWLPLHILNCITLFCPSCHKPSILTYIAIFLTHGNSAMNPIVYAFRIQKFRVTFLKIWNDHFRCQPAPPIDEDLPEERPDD
Method: as §1, §2, §3, §4

[4] = molecular target: T3, β2AR (Homo sapiens, UniProt P07550); assay: HTS (PHERAstar FS) fluorescent ligand competition binding in live CHO cells, 10 nM BODIPY-TMR-CGP tracer; settings: 10 μM compound, 10 nM BODIPY-TMR-CGP, mean ± SEM, n=3
T3 construct: expressed in transfected cells
T3 sequence (P07550 whole entry): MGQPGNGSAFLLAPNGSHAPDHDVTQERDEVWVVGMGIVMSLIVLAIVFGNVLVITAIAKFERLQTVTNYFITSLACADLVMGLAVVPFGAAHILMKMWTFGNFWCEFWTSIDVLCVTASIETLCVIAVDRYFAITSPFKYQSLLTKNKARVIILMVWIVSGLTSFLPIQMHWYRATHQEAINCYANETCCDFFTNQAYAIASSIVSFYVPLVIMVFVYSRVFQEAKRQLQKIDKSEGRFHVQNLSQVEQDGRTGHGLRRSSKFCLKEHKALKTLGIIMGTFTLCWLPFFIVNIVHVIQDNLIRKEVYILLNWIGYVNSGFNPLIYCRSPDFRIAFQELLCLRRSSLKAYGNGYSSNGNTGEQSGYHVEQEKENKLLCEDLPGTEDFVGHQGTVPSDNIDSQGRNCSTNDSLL
Method: as §1, §2, §3, §4

[5] = % of control wells (1% DMSO and 25 nM CA200645), compounds at 10 µM, whole live cells expressing the A3AR, mean ± SD, three experiments in duplicate

Compound	% 25 nM CA200645 binding [2] [%]	also measured
Cn1c(=O)c(-c2c(Cl)cccc2Cl)cc2cnc(Nc3ccc(N4CCOCC4)cc3)nc21 [PD173952, reference compound]	25.6 ± 5.3	displacement of CA200645 binding at the A3AR in full inhibition curves [1]: only displaced the binding of CA200645 at the highest concentration tested
O=C1Cc2c([nH]c3ccc(Br)cc23)-c2ccccc2N1 [kenpaullone, reference compound]	30.6 ± 6.6	displacement of CA200645 binding at the A3AR in full inhibition curves [1]: only displaced the binding of CA200645 at the highest concentration tested
Oc1ccc(/C=C/c2ccc(/C=C/c3ccc(O)cc3)c(Br)c2)cc1 [K114]		Ki [3]: 275 nM; Ki ([1]; secondary screen of LOPAC hits, full inhibition curves, 25 nM CA200645, mean ± SEM, n=3, read-out: A3AR pKi (selected LOPAC hits) (converted)): 372 nM; β2AR % Total binding at 10 μM [4]: 95.8 ± 5.5%; % 25 nM CA200645 binding [2, 5]: 24.6 ± 5.8%
CC(=O)c1c(O)c(C)c(O)c(Cc2c(O)c3c(c(C(=O)/C=C/c4ccccc4)c2O)OC(C)(C)C=C3)c1O [rottlerin, reference compound]	22.8 ± 1.4	displacement of CA200645 binding at the A3AR in full inhibition curves [1]: only displaced the binding of CA200645 at the highest concentration tested
O=c1c(O)c(-c2ccc(O)c(O)c2)oc2cc(O)cc(O)c12 [quercetin]		displacement of CA200645 binding at the A3AR in full inhibition curves [1]: only displaced the binding of CA200645 at the highest concentration tested
O.c1cnc2c(c1)ccc1cccnc12 [1,10-Phenanthroline monohydrate]	90.7 ± 13.0	
CC(C)(C)c1cc(C=C(C#N)C#N)cc(C(C)(C)C)c1O [Tyrphostin A9]	93.2 ± 14.5	
[N-]=[N+]=Nc1ccc(C(=O)CSC[C@H](NC(=O)CC[C@H](N)C(=O)O)C(=O)NCC(=O)O)cc1 [S-(p-Azidophenacyl)glutathione]	82.4 ± 8.6	
Nc1nc(Nc2ccccc2)nc2c1ncn2[C@@H]1O[C@H](CO)[C@@H](O)[C@H]1O [CV1808, 2-phenylaminoadenosine, reference compound]	55.3 ± 19.9	hit in LOPAC primary screen (inhibited the binding of CA200645 by >40%) ([2]; 10 μM compound, 25 nM CA200645, A3AR CHO cells): identified; % Total CA200645 binding ([2]; % of 25 nM CA200645 binding in the presence of 10 μM compound, LOPAC full screen, A3AR CHO cells): 53.3 ± 19.9%
NC(=O)c1ncn([C@@H]2O[C@H](CO)[C@@H](O)[C@H]2O)c1O [Mizoribine]	101.6 ± 4.8	
C=C1C(=O)O[C@H]2[C@H]1CC/C(C)=C/CC[C@@]1(C)O[C@@H]21 [Parthenolide]		% 25 nM CA200645 binding [2, 5]: 98.5 ± 15.3%
CC(C)=CCOc1c2occc2cc2ccc(=O)oc12 [Imperatorin]	47.6 ± 2.3	
Cl.NCC(O)c1cc(O)c(O)cc1F (centres unmarked) [6-Fluoronorepinephrine hydrochloride]	77.6 ± 28.4	
O=C(CCSCc1ccco1)NNC(=O)N1Cc2ccccc2Oc2ccc(Cl)cc21 [SC-51322]	86.9 ± 5.7	
CNCCc1ccc(O)c(O)c1.Cl [N-Methyldopamine hydrochloride]	96.1 ± 15.9	
C[C@]12C[C@H](O)[C@H]3[C@@H](CCC4=CC(=O)CC[C@@]43C)[C@@H]1CC[C@@H]2C(=O)CO [Corticosterone]	99.8 ± 5.3	
CCN(CC)CCNC(=O)c1cc(S(C)(=O)=O)ccc1OC [Tiapride hydrochloride]	98.9 ± 15.2	
CCCNCC(O)COc1ccccc1C(=O)CCc1ccccc1 (centres unmarked) [Propafenone hydrochloride]	111.3 ± 10.1	
O=C1C=CC(=O)C=C1 [p-Benzoquinone]	85.9 ± 13.7	
CNc1cc(NS(=O)(=O)c2ccc(N)cc2)nc(NC)n1.Cl.Cl [Ro 04-6790 dihydrochloride]	82.1 ± 15.5	
17alpha-hydroxyprogesterone	104.8 ± 10.6	
CCCN(CCC)CCc1ccc(O)c(O)c1 [Dipropyldopamine hydrobromide]	101.8 ± 8.0	
O=c1ccc2ccc(O)c(O)c2o1 [Daphnetin]	102.0 ± 13.1	
Cc1[nH]c(=O)c(C#N)cc1-c1ccc2nccn2c1.Cl [Olprinone hydrochloride]	100.7 ± 4.5	

Compound	% 25 nM CA200645 binding [2] [%]	also measured
COc1ccc2c(c1)CC[C@@H]1[C@@H]2CC[C@]2(C)[C@@H](NCCCCCCN3C(=O)CCC3=O)CC[C@@H]12 [U-73343]	99.9 ± 5.3	
C[C@]12C=CC(=O)C=C1CC[C@H]1[C@@H]3C[C@@H](O)[C@](O)(C(=O)CO)[C@@]3(C)C[C@H](O)[C@@]12F [Triamcinolone]	95.9 ± 21.3	
N.N.N.N.N.N.N.N.N.N.N.N.N.N.[Cl-].[Cl-].[Cl-].[Cl-].[Cl-].[Cl-].[O-2].[O-2].[Ru+3].[Ru+3].[Ru+4] [Ruthenium red]	95.4 ± 2.3	
Clc1ccc2c(N3CCN(CCCN4CCN(c5ccnc6cc(Cl)ccc56)CC4)CC3)ccnc2c1 [Piperaquine tetraphosphate tetrahydrate]	96.8 ± 7.2	
Cc1cnc(C(=O)NCCc2ccc(S(=O)(=O)NC(=O)NC3CCCCC3)cc2)cn1 [Glipizide]	96.3 ± 1.2	
CC[C@H]1OC(=O)[C@H](C)[C@@H](O[C@H]2C[C@@](C)(OC)[C@@H](O)[C@H](C)O2)[C@H](C)[C@@H](O[C@@H]2O[C@H](C)C[C@H](N(C)C)[C@H]2O)[C@](C)(O)C[C@@H](C)CN(C)[C@H](C)[C@@H](O)[C@]1(C)O [Azithromycin dihydrate]	98.9 ± 6.9	
CC(C)Cc1ccc([C@H](C)C(=O)O)cc1 [S(+)-Ibuprofen]	107.7 ± 17.0	
CC(=O)NNC(=O)N1Cc2ccccc2Oc2ccc(Cl)cc21 [SC 19220]	105.0 ± 9.4	
CC(=O)N1CCN(c2ccc(OCC3COC(Cn4ccnc4)(c4ccc(Cl)cc4Cl)O3)cc2)CC1 (centres unmarked) [Ketoconazole]	98.9 ± 9.0	
O=C(O)c1cc(O)cc(C(=O)O)n1 [Chelidamic acid]	110.2 ± 8.8	
Nc1ccc(CCNc2ncnc3c2ncn3[C@@H]2O[C@H](CO)[C@@H](O)[C@H]2O)cc1 [N6-2-(4-Aminophenyl)ethyladenosine]	41.0 ± 7.1	
O=C(OCCN1CCOCC1)C1(c2ccccc2)CCCCC1 [PRE-084]	100.3 ± 14.3	
CC(N)(Cc1ccc(O)cc1)C(=O)O (racemic) [DL-alpha-Methyl-p-tyrosine]	102.4 ± 5.8	
Cl.Clc1ccc(N2CCN(Cc3c[nH]c4ncccc34)CC2)cc1 [L-745,870 hydrochloride]	105.7 ± 4.1	
Cl.c1ccc(CN2CCC3(CCCc4ccccc43)CC2)cc1 [L-687,384 hydrochloride]	108.6 ± 4.6	
Cl.Cl.Cn1cnc(CCN)c1 [1-Methylhistamine dihydrochloride]	99.7 ± 10.5	
Cc1cnc(NC(=O)C2=C(O)c3ccccc3S(=O)(=O)N2C)s1 [Meloxicam sodium]	93.6 ± 6.8	
OCCN(CCO)c1nc(N2CCCCC2)c2nc(N(CCO)CCO)nc(N3CCCCC3)c2n1 [Dipyridamole]	78.8 ± 14.8	
CN(C)C/C=C(/c1ccc(Br)cc1)c1cccnc1 [Zimelidine dihydrochloride]	92.5 ± 9.4	
Br.CN=c1nc(-c2ccccc2)n(-c2ccccc2)s1 [SCH-202676 hydrobromide]	83.4 ± 13.1	
CCN(CC)CCNC(=O)c1c(C)[nH]c(/C=C2\C(=O)Nc3ccc(F)cc32)c1C [Sunitinib malate]	97.4 ± 12.4	
Cc1cccc(C)c1N=C1NCCCS1 [Xylazine hydrochloride]	106.3 ± 5.8	
CCCCCCCCCC[Si](C)(C)CCC(=O)NC(Cc1ccc(C)cc1)c1ccccc1 (centres unmarked) [Sandoz 58-035]	99.6 ± 12.7	
CC(C)NCC(O)c1ccc(O)c(O)c1.Cl (racemic) [(±)-Isoproterenol hydrochloride]	95.3 ± 10.4	
